These results are taken from patent publication EP3670512A1, “DIAZABICYCLOOCTANONES AS INHIBITORS OF SERINE BETA-LACTAMASES” (Antabio SAS, priority 2018, dated 2020).

One test deals with AmpC. Briefly: In vitro enzyme inhibition assay (nitrocefin hydrolysis), AmpC. The class given is biochemical. Particulars: nitrocefin 100µM, 10mM HEPES pH 7.5; banded; read-out: Amp-C mean IC50. How it is done:
(§1) Compound dilution was performed in DMSO.

In test [1] the test system is NTBC091.1 (E. coli strain expressing KPC-2, TEM-1). Nature of the test: Meropenem potentiation, broth micro-dilution MIC, strain NTBC091.1. Particulars: for MIC mero + 4 µg/mL inhibitor: NTBC091.1, MIC of meropenem with 4 µg/mL of the labelled compound; for MIC of combination with meropenem compared with the combination of meropenem and avibactam: strain NTBC091.1. The class given is cell-based.

For test [2], the system named is NTBC093 (E. cloacae strain expressing KPC-2, TEM-1). Nature of the test: Meropenem potentiation, broth micro-dilution MIC, strain NTBC093. It is filed as cell-based. Particulars: for MIC mero + 4 µg/mL inhibitor: NTBC093, MIC of meropenem with 4 µg/mL of the labelled compound, banded. A general note: Dilution methods test growth across graded concentrations, often in twofold steps.

The next test deals with CTX-M15 (Escherichia coli, UniProt Q9EXV5). Nature of the test: In vitro enzyme inhibition assay (nitrocefin hydrolysis), CTX-M15. It is filed as biochemical. Particulars: nitrocefin 50µM, 10mM HEPES pH 7.5; numeric value. How it is done:
as §1

Test [3] deals with NTBC096.1 (K. pneumoniae strain expressing OXA-181 and SHV-11). Nature of the test: Meropenem potentiation, broth micro-dilution MIC, strain NTBC096.1. It is filed as cell-based.
In test [4] the test system is NTBC189 (K. pneumoniae strain expressing TEM-OSBL(b), CTX-M-14, OXA-48(c)). Briefly: Meropenem potentiation, broth micro-dilution MIC, strain NTBC189. It is filed as cell-based.
The test system of test [5] is clinical strains of Enterobacteriaceae that are resistant to betalactam antibiotics (produce OXA variants of SBL enzymes). Nature of the test: Cumulative MIC against large panel of resistant clinical strains (Figure 1). It is filed as cell-based. The settings on record: at an MIC of 1 µg/mL, Example 10 in combination with meropenem. The source says:
The data is presented in Figure 1 in the standard cumulative MIC fashion.

Test [6] has as its system NTBC099 (K. pneumoniae strain expressing KPC-3, SHV-11 and TEM-1). Briefly: microbe, parasite or virus in culture. Particulars: Klebsiella pneumoniae, read-out: MIC mero, µg/mL, no inhibitor. It is filed as cell-based.
For test [7], the system named is panel of 48 A. baumannii strains that are resistant to betalactam antibiotics (produces OXA variants of SBL enzymes). Briefly: Cumulative MIC against panel of 48 resistant strains (Figure 2). Particulars: in the presence of 16 µg/mL of each inhibitor, Example 10 in combination with meropenem. The class given is cell-based. The source says:
The data is presented in Figure 2 in the standard cumulative MIC fashion.

Where [8] appears, read: Klebsiella pneumoniae, read-out: MIC mero, µg/mL, no inhibitor.

≈ marks a conversion by molar mass, not a printed value.

Chain of CTX-M15 (Q9EXV5 29-291, species assumed): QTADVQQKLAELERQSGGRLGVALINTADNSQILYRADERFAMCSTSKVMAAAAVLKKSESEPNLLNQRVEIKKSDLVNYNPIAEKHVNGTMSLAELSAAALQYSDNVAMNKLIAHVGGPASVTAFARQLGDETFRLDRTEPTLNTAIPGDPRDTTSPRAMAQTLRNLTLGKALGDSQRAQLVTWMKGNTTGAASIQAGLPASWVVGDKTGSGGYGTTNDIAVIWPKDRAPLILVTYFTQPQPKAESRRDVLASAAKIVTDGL

What is called IC50 is the concentration at which inhibition is half-maximal. Consider `O=C1N2C[C@@H](CC[C@H]2C(F)(F)c2nccs2)N1OS(=O)(=O)[O-].[Na+]` [Example 9, Sodium (2S, 5R)-2-[difluoro(1,3-thiazol-2-yl)methyl]-7-oxo-1,6-diazabicyclo[3.2.1]octan-6-yl sulphate], for which the IC50 at AmpC is less than 10 nM. Moreover, the “MIC mero + 4 µg/mL inhibitor” value in test [1] (banded) and in [2] was “(A) (MIC < 1 µg/mL (A))” each time.

On to `O=C1N2C[C@@H](CC[C@H]2C(F)(F)F)N1OS(=O)(=O)[O-].[Na+]` [Example 1, Sodium (2S, 5R)-7-oxo-2-(trifluoromethyl)-1,6-diazabicyclo[3.2.1]octan-6-yl sulfate], for which the IC50 on AmpC was less than 10 nM. For the same compound, the results for the “MIC mero + 4 µg/mL inhibitor” value in test [1] (banded) and in test [1] (numeric) were “(A) (MIC < 1 µg/mL (A))” and 0.03 µg/mL, respectively. For the same compound, the “MIC of combination with meropenem compared with the combination of meropenem and avibactam” value in test [1] is “lower”.

`O=C1N2C[C@@H](CC[C@H]2C(Cl)Cl)N1OS(=O)(=O)[O-].[Na+]` [Example 3, Sodium (2S,5R)-2-(dichloromethyl)-7-oxo-1,6-diazabicyclo[3.2.1]octan-6-yl sulfate]: the half-maximal inhibitory concentration (IC50) at AmpC lay within 40 to 60 nM. The “MIC mero + 4 µg/mL inhibitor” value in [1] (banded) and in test [2] was “(A) (MIC < 1 µg/mL (A))” each time.

With `O=C1N2C[C@@H](CC[C@@H]2F)N1OS(=O)(=O)[O-].[Na+]` [Example 11, Sodium (2S, 5R)-2-fluoro-7-oxo-1,6-diazabicyclo [3.2.1] octan-6-yl sulfate], the IC50 on AmpC was more than 60 nM. Besides, the “MIC mero + 4 µg/mL inhibitor” value is on record as “(A) (MIC < 1 µg/mL (A))” in test [1] (banded) and “(B) (MIC = 1 or 2 µg/mL (B))” in [2].

Consider `O=C1N2C[C@@H](CC[C@H]2COC(F)(F)F)N1OS(=O)(=O)[O-].[Na+]` [Example 8, Sodium (2S, 5R)-7-oxo-2-[(trifluoromethoxy)methyl]-1,6-diazabicyclo[3.2.1]octan-6-yl sulphate], for which the IC50 at AmpC lay within 40 to 60 nM. In addition, the “MIC mero + 4 µg/mL inhibitor” value in [1] (banded) and in test [2] was “(A) (MIC < 1 µg/mL (A))” throughout.

Turning to `O=C1N2C[C@@H](CC[C@H]2C(F)F)N1OS(=O)(=O)[O-].[Na+]` [Example 2, Sodium (2S, 5R)-7-oxo-2-(difluoromethyl)-1,6-diazabicyclo[3.2.1]octan-6-yl sulfate], the IC50 on AmpC lay within 10 to 40 nM. Also, the “MIC mero + 4 µg/mL inhibitor” value in [1] (banded) is reported as “(A) (MIC < 1 µg/mL (A))”; in test [1] (numeric), 0.03 µg/mL. Further, in test [1], the “MIC of combination with meropenem compared with the combination of meropenem and avibactam” value is “lower”.

`NC(=O)[C@@H]1CC[C@@H]2CN1C(=O)N2OS(=O)(=O)O` [Avibactam, avibactam] displayed an IC50 on CTX-M15 of 1.4 nM. Moreover, the “MIC mero + 4 µg/mL inhibitor” value is 0.06 (A) µg/mL in test [1] (numeric) and 1(B) µg/mL in [3] (NTBC096.1, MIC of meropenem with 4 µg/mL of the labelled compound, numeric).

On to `O=C1N2C[C@@H](CC[C@H]2F)N1OS(=O)(=O)[O-].[Na+]` [Example 10, Sodium (2R,5R)-2-fluoro-7-oxo-1,6-diazabicyclo[3.2.1]octan-6-yl sulfate], for which, on AmpC, the IC50 lay within 10 to 40 nM. The “MIC mero + 4 µg/mL inhibitor” value in test [1] (banded) and in test [2] was “(A) (MIC < 1 µg/mL (A))” each time. The “MIC of combination with meropenem compared with the combination of meropenem and avibactam” value in test [1] is listed as “lower”; in test [2] (strain NTBC093), “similar”; in test [3] (strain NTBC096.1), “lower”; in test [4] (strain NTBC189), “lower”. In addition, in [5], the “fraction of strains susceptible” value was “over 90%”.

On to `O=C1N2C[C@@H](CC[C@H]2CF)N1OS(=O)(=O)[O-].[Na+]` [Example 4, Sodium (2S, 5R)-2-(fluoromethyl)-7-oxo-1,6-diazabicyclo[3.2.1]octan-6-yl sulphate], for which, at AmpC, the IC50 is less than 10 nM. The “MIC mero + 4 µg/mL inhibitor” value in test [1] (banded) and in [2] was “(A) (MIC < 1 µg/mL (A))” each time.

In the case of `O=C1N2C[C@@H](CC[C@H]2SC(F)(F)F)N1OS(=O)(=O)[O-].[Na+]` [Example 7, Sodium (2R, 5R)-7-oxo-2-[(trifluoromethyl)sulfanyl]-1,6-diazabicyclo[3.2.1]octan-6-yl sulphate], the IC50 at AmpC is 40 to 60 nM. Moreover, the “MIC mero + 4 µg/mL inhibitor” value is reported as “(A) (MIC < 1 µg/mL (A))” in test [1] (banded) and “(B) (MIC = 1 or 2 µg/mL (B))” in [2].

Turning to `O=C1N2C[C@@H](CC[C@H]2Cl)N1OS(=O)(=O)[O-].[Na+]` [Example 12, Sodium (2R,5R)-2-chloro-7-oxo-1,6-diazabicyclo[3.2.1]octan-6-yl sulfate], at AmpC, the IC50 was less than 10 nM. Moreover, the “MIC mero + 4 µg/mL inhibitor” value in [1] (banded) and in test [2] was “(A) (MIC < 1 µg/mL (A))” throughout. Moreover, the “MIC of combination with meropenem compared with the combination of meropenem and avibactam” value in [1] is listed as “lower”.

`C[C@@H](O)[C@H]1C(=O)N2C(C(=O)O)=C(S[C@@H]3CN[C@H](C(=O)N(C)C)C3)[C@H](C)[C@H]12` [meropenem, reference compound]: the MIC was found to be 4 µg/mL in [1] (Escherichia coli, read-out: MIC mero, µg/mL, no inhibitor); 8 µg/mL in test [2] (Enterobacter cloacae, read-out: MIC mero, µg/mL, no inhibitor); 32 µg/mL in [3] (setting [8]); 256 µg/mL (≈ 668 µM) in [6]; 32 µg/mL in test [4] (setting [8]). The “fraction of strains susceptible” value was 0% in test [5] and “less than 10%” in test [7].

Take `CC(F)(F)[C@@H]1CC[C@@H]2CN1C(=O)N2OS(=O)(=O)[O-].[Na+]` [Example 5, Sodium (2S, 5R)-2-(1,1-difluoroethyl)-7-oxo-1,6-diazabicyclo[3.2.1]octan-6-yl sulphate]: the IC50 at AmpC lay within 40 to 60 nM. The “MIC mero + 4 µg/mL inhibitor” value in test [1] (banded) and in test [2] was “(A) (MIC < 1 µg/mL (A))” throughout.

On to `O=C1N2C[C@@H](CC[C@H]2CCl)N1OS(=O)(=O)[O-].[Na+]` [Example 6, Sodium (2S, 5R)-2-(chloromethyl)-7-oxo-1,6-diazabicyclo[3.2.1]octan-6-yl sulphate], for which the IC50 on AmpC was 10 to 40 nM. Further, the “MIC mero + 4 µg/mL inhibitor” value in test [1] (banded) and in test [2] was “(A) (MIC < 1 µg/mL (A))” in each case.
